From patent publication US11186554B2, “Non-fused tricyclic compounds” (VIVACE THERAPEUTICS, INC., priority 2017, dated 2021) come the findings set out here.

The term IC50 denotes the point on the concentration scale where inhibition reaches its midpoint.

SMILES strings stand for the structures.

The first experiment concerns firefly luciferase activity. Description: Dual-Glo firefly/renilla luciferase reporter assay in cells. It counts as cell-based. The note with it: 24 h, read-out: Firefly Luciferase IC50 (μM).
`OCCn1nnc(-c2c(F)cccc2Nc2ccc(C(F)(F)F)cc2)n1` [Compound 187, 2-(5-(2-fluoro-6-((4-(trifluoromethyl)phenyl)amino)phenyl)-2H-tetrazol-2-yl)ethan-1-ol]: the IC50 is < 0.1 µM.

For `CCOC(=O)Cn1cc(-c2ccccc2Nc2cccc(C(F)(F)F)c2)nn1` [Compound 18, Ethyl 2-[4-[2-[3-(trifluoromethyl)anilino]phenyl]triazol-1-yl]acetate], the 50% inhibitory concentration (IC50) lay within 1 to 5 µM.

Regarding `OCCn1nnc(-c2ccccc2Nc2cccc(Cl)c2)n1` [Compound 250, 2-(5-(2-((3-chlorophenyl)amino)phenyl)-2H-tetrazol-2-yl)ethanol], the IC50 lay in the range of 1 to 5 µM.

On to `OCCn1nnc(-c2cccnc2Nc2ccc(OC(F)(F)F)cc2)n1` [Compound 75, 2-(5-(2-((4-(trifluoromethoxy)phenyl)amino)pyridin-3-yl)-2H-tetrazol-2-yl)ethanol], for which the half-maximal inhibitory concentration (IC50) is 0.1 to 1 µM.

For the compound `CCc1cccc(Nc2ccccc2-c2nnn(CCO)n2)c1` [Compound 17, 2-[5-[2-(3-ethylanilino)phenyl]tetrazol-2-yl]ethanol], the IC50 fell in the range of 0.1 to 1 µM.

In the case of `OCCn1nnc(-c2ccccc2Nc2cccc(F)c2)n1` [Compound 10, 2-(5-(2-((3-fluorophenyl)amino)phenyl)-2H-tetrazol-2-yl)ethanol], the IC50 fell in the range of 0.1 to 1 µM.

As for `OCCn1nnc(-c2ccccc2Nc2ccc(F)cc2)n1` [Compound 8, 2-[5-[2-(4-fluoroanilino)phenyl]tetrazol-2-yl]ethanol], the IC50 was in the range of 0.1 to 1 µM.

Take `Cc1ccc(-c2nnn(CCO)n2)c(Nc2ccc(C(F)(F)F)cc2)c1` [Compound 243, 2-(5-(4-methyl-2-((4-(trifluoromethyl)phenyl)amino)phenyl)-2H-tetrazol-2-yl)ethanol]: the concentration for half-maximal inhibition (IC50) is < 0.1 µM.

The experiment is the same for the next values; noted with them: 24 hrs compound treatment, starting from 3 uM, 1:3 dilution, 10 points; read-out: Firefly Luciferase IC50.
Take `OC1(Cn2nnc(-c3ccccc3Nc3ccc(C(F)(F)F)cc3)n2)CCN(c2ccccc2)C1` (stereo not drawn) [Compound 172]: the 50% inhibitory concentration (IC50) was in the range of 1 to 5 µM.

With `CC(CN)n1nnc(-c2ccccc2Nc2ccc(C(F)(F)F)cc2)n1` (stereo not drawn) [Compound 218, 2-(2-(1-aminopropan-2-yl)-2H-tetrazol-5-yl)-N-(4-(trifluoromethyl)phenyl) Aniline], the half-inhibitory concentration (IC50) was < 0.1 µM.

In the case of `COC1CCCC1n1nnc(-c2ccccc2Nc2ccc(C(F)(F)F)cc2)n1` (stereo not drawn) [Compound 214, 2-(2-(2-methoxycyclopentyl)-2H-tetrazol-5-yl)-N-(4-(trifluoromethyl)phenyl) Aniline], the IC50 was 0.1 to 1 µM.

With `OCCCn1nnc(-c2ccccc2Nc2ccc(C(F)(F)F)cc2)n1` [Compound 98, 3-(5-(2-((4-(trifluoromethyl)phenyl)amino)phenyl)-2H-tetrazol-2-yl)propan-1-01], the concentration for half-maximal inhibition (IC50) was < 0.1 µM.

Take `FC(F)(F)c1ccc(Nc2ccccc2-c2nnn(C3CCOC3)n2)cc1` (stereo not drawn) [Compound 119, 2-(2-(tetrahydrofuran-3-yl)-2H-tetrazol-5-yl)-N-(4-(trifluoromethyl)phenyl) Aniline]: the IC50 was < 0.1 µM.

In the case of `FCCCn1nnc(-c2ccccc2Nc2ccc(C(F)(F)F)cc2)n1` [Compound 126, 2-[2-(3-fluoropropyl)tetrazol-5-yl]-N-[4-(trifluoromethyl)phenyl]aniline], the IC50 is 0.1 to 1 µM.

`OC(Cn1nnc(-c2ccccc2Nc2ccc(C(F)(F)F)cc2)n1)C(F)(F)F` (stereo not drawn) [Compound 131, 1,1,1-trifluoro-3-[5-[2-[4-(trifluoromethyl)anilino]phenyl]tetrazol-2-yl]propan-2-ol]: the IC50 was < 0.1 µM.

Take `OCCn1nnc(-c2ccccc2Nc2ccc(SC(F)(F)F)cc2)n1` [Compound 248, 2-(5-(2-((4-((trifluoromethyl)thio)phenyl)amino)phenyl)-2H-tetrazol-2-yl)ethanol]: the 50% inhibitory concentration (IC50) lay in the range of 0.1 to 1 µM.

As to `Cn1nnc(-c2ccccc2Nc2ccc(C(F)(F)F)cc2)n1` [Compound 171, 2-(2-methyltetrazol-5-yl)-N-[4-(trifluoromethyl)phenyl]aniline], the half-maximal inhibitory concentration (IC50) is 0.1 to 1 µM.

`CCOC(=O)Cn1cnc(-c2ccccc2Nc2ccc(C(F)(F)F)cc2)c1` [Compound 202, ethyl 2-(4-(2-((4-(trifluoromethyl)phenyl)amino)phenyl)-1H-imidazol-1-yl)acetate]: the IC50 lay within 0.1 to 1 µM.

With `CS(=O)(=O)NCCn1nnc(-c2ccccc2Nc2ccc(C(F)(F)F)cc2)n1` [Compound 93, N-[2-[5-[2-[4-(trifluoromethyl)anilino]phenyl]tetrazol-2-yl]ethyl]methane Sulfonamide], the IC50 fell in the range of 1 to 5 µM.

As for `O=C1NCC(Cn2nnc(-c3ccccc3Nc3ccc(C(F)(F)F)cc3)n2)O1` (stereo not drawn) [Compound 136, 5-((5-(2-((4-(trifluoromethyl)phenyl)amino)phenyl)-2H-tetrazol-2-yl)methyl)oxazolidin-2-one], the half-maximal inhibitory concentration (IC50) was 0.1 to 1 µM.

On to `OC1(Cn2nnc(-c3ccccc3Nc3ccc(C(F)(F)F)cc3)n2)CCC1` [Compound 169, 1-((5-(2-((4-(Trifluoromethyl)phenyl)amino)phenyl)-2H-tetrazol-2-yl)methyl)cyclobutanol], for which the IC50 was < 0.1 µM.

As to `OC1(Cn2nnc(-c3ccccc3Nc3ccc(C(F)(F)F)cc3)n2)CC1` [Compound 204, 1-((5-(2-((4-(trifluoromethyl)phenyl)amino)phenyl)-2H-tetrazol-2-yl)methyl) cyclopropan-1-ol], the IC50 is < 0.1 µM.

As to `O=C(Cn1nnc(-c2ccccc2Nc2ccc(C(F)(F)F)cc2)n1)N1CCCC1` [Compound 45, 1-pyrrolidin-1-yl-2-[5-[2-[4-(trifluoromethyl)anilino]phenyl]tetrazol-2-yl]ethanone], the 50% inhibitory concentration (IC50) lay in the range of 0.1 to 1 µM.

For the compound `Cc1nn(CCO)cc1-c1ccccc1Nc1ccc(C(F)(F)F)cc1` [Compound 83, 2-[3-methyl-4-[2-[4-(trifluoromethyl)anilino]phenyl]pyrazol-1-yl]ethanol], the IC50 is 1 to 5 µM.

As for `CCOC(=O)Cn1cc(-c2ccccc2Nc2ccc(C(F)(F)F)cc2)c(C)n1` [Compound 76, ethyl 2-[3-methyl-4-[2-[4-(trifluoromethyl)anilino]phenyl]pyrazol-1-yl]acetate], the IC50 lay in the range of 0.1 to 1 µM.

With `OCCn1nnc(-c2ccccc2Nc2ccc(C(F)(F)F)c(Cl)c2)n1` [Compound 246, 2-(5-(2-((3-chloro-4-(trifluoromethyl)phenyl)amino)phenyl)-2H-tetrazol-2-yl)ethanol], the concentration for half-maximal inhibition (IC50) is < 0.1 µM.

Turning to `CCOC(=O)Cn1ncc(-c2ccccc2Nc2cccc(C(F)(F)F)c2)c1C` [Compound 90, ethyl 2-(5-methyl-4-(2-((3-(trifluoromethyl)phenyl)amino)phenyl)-1H-pyrazol-1-yl)acetate], the half-inhibitory concentration (IC50) lay in the range of 1 to 5 µM.

Consider `C[C@H](c1ccccc1)N1C(=O)OC[C@H]1Cn1nnc(-c2ccccc2Nc2ccc(C(F)(F)F)cc2)n1` [Compound 132, (4R)-3-[(1R)-1-phenylethyl]-4-[[5-[2-[4-(trifluoromethyl)anilino]phenyl]tetrazol-2-yl]methyl]oxazolidin-2-one], for which the IC50 was 0.1 to 1 µM.

Regarding `CO[C@H](C)[C@H](C)n1nnc(-c2ccccc2Nc2ccc(C(F)(F)F)cc2)n1` [Compound 211, 2-(2-((2S,3R)-3-methoxybutan-2-yl)-2H-tetrazol-5-yl)-N-(4-(trifluoromethyl)phenyl)aniline], the IC50 fell in the range of 0.1 to 1 µM.

`CO[C@H](C)[C@@H](C)n1nnc(-c2ccccc2Nc2ccc(C(F)(F)F)cc2)n1` [Compound 213, 2-(2-((2R,3R)-3-methoxybutan-2-yl)-2H-tetrazol-5-yl)-N-(4-(trifluoromethyl)phenyl)aniline]: the half-inhibitory concentration (IC50) was in the range of 0.1 to 1 µM.
